How the values were obtained:
Type in all cases: biochemical
Aurora1 = molecular target: T1, Aurora1 (Homo sapiens, UniProt Q96GD4); assay: Aurora1 enzymatic test, NuMA phosphorylation with [33P]ATP, Flashplate; conditions: Aurora-B/INCENP-C3 recombinant complex, 1 μM ATP
T1 construct: His tag (N); made in house
Experimental: (§1) The inhibitory effect of compounds with respect to the kinases Aurora1 and Aurora2 is determined by means of an enzymatic test using radioactivity detection.
(§2) The kinase activity of Aurora1 and Aurora2 is evaluated via the phosphorylation of the substrate Numa-histidine in the presence of radiolabelled ATP ([^33P]ATP) using 96-well Flashplate plates in which the nickel chelate is bound to the surface of the microplate. The amount of ^33P phosphate incorporated into the NuMA substrate is proportional to the activity of the enzyme Aurora1 or Aurora2.
Aurora1: Aurora-B/INCENP-C3 recombinant complex, purified to about 50%, the N-terminal end of Aurora-B of which has been labeled with histidine.
(§3) NuMA (nuclear protein that combines with the mitotic apparatus): 424-amino acid fragment, expressed in E. coli, the N-terminal end of which has been labeled with histidine, and used as substrate for the two Aurora enzymes.
(§4) The microplates used are 96-well Flash-Plate plates, nickel chelate (Perkin-Elmer, model SMP107).
(§5) The products to be evaluated are incubated in a reaction volume of 100 μL per well, in the presence of 10 nM of Aurora1 or Aurora2, 500 nM of NuMA substrate in a buffer composed of 50 mM Tris/HCl (pH 7.5), 50 mM NaCl, 5 mM MgCl2 (Aurora-B) or 10 mM MgCl2 (Aurora-A) and 1 mM DTT, at 37° C.
(§6) 80 μL of enzyme/substrate incubation buffer are distributed in each well, followed by 10 μL of product to be evaluated, at variable concentrations. The reaction is initiated by adding 1 μM final of ATP containing 0.2 μCi of [^33P]ATP (10 μL). After incubating for 30 minutes, the reaction is quenched by simple removal of the reaction buffer and each well is washed twice with 300 μl of Tris/HCl buffer. The radioactivity is then measured in each well using a Packard, Top-Count model scintillation machine.
(§7) The control enzymatic activity of Aurora is expressed by the number of counts per minute obtained over 30 minutes after subtracting the background noise (reaction mixture containing no enzyme). The evaluation of the various test products is expressed as a percentage of inhibition of the Aurora activity relative to the control.

Aurora2 = molecular target: T2, Aurora2 (Homo sapiens, UniProt O14965); assay: Aurora2 enzymatic test, NuMA phosphorylation with [33P]ATP, Flashplate; conditions: whole recombinant protein, 1 μM ATP
T2 construct: Aurora2: whole recombinant protein comprising an N-terminal histidine tail; His tag (N); made in house; host or cells: E. coli
T2 sequence (O14965 1-403): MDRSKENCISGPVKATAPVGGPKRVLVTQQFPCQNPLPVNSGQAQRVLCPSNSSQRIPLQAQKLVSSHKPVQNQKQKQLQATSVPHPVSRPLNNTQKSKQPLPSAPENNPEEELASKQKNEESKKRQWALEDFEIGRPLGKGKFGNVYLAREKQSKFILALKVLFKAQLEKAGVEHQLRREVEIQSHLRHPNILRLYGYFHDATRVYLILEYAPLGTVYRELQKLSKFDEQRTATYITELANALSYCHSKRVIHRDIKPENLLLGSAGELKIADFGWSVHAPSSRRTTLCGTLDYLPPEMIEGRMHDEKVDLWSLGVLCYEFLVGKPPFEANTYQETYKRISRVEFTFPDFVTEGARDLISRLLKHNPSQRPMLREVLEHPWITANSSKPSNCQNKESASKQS
Experimental: as §1, §2
Aurora2: whole recombinant protein comprising an N-terminal histidine tail, was expressed in E. coli and purified to more than 82%.
as §3, §4, §5, §6, §7

CDK2/cycline E = molecular target: T3, CDK2/cycline E (Homo sapiens, UniProt P24941); assay: CDK2/cyclineE Flashplate test in 96-well format; conditions: CDK2/cycline E complex, 1 μM ATP
T3 construct: made in house; host or cells: Sf21 insect cells (baculovirus coinfection)
Experimental: Two recombinant baculoviruses bearing the human sequences coding, respectively, for CDK2 and cyclineE (the latter bearing a C-terminal hexahistidine tag) are used to coinfect Sf21 insect cells. Two to three days after the start of coinfection, the cells are harvested by centrifugation and then stored at −40° C. until the time of use.
A format in streptavidin-coated 96-well plates is used to test the activity of the compounds on the kinase activity of CDK2/cycline E.
To perform this test, the biotinylated peptide substrate, a fragment of the protein pRb (biotinyl-[…]-OH), is dissolved at a concentration of 1 mM in kinase buffer (HEPES/NaOH 50 mM, NaCl 1 mM, MgCl2 5 mM, pH 7.5) in order to constitute a stock solution stored at −20° C. in the form of 110 μL aliquots. On the day of the experiment, an aliquot of this solution is thawed and diluted in kinase buffer containing 1 mM of dithiothreitol, added to the buffer extemporaneously, in order to obtain a concentration of 14.3 μM. 70 μL of this solution are added to each well of the Flashplate in order to obtain a final substrate concentration of 10 μM during the enzymatic reaction performed in a final volume of the reaction medium of 100 μL (cf. below).
Intermediate dilutions of inhibitors (products of the invention) at various concentrations are prepared in DMSO from stock solutions at 10 mM in separate tubes. Dilutions at 1000 μM, 333.3 μM, 111.1 μM, 37.03 μM, 12.35 μM, 4.11 μM and 1.37 μM are thus prepared. One μL of each of these solutions (or 1 μL of DMSO for the controls) is transferred into the wells of the test plate.
19 μl of a solution of a mixture of adenosine triphosphate (ATP) and of ATPγ^33P in kinase buffer at a total concentration of 5.26 μM of ATP and 52.6 μCi/ml of ^33P are then added to each well. The enzymatic reaction is initiated by adding 10 μL per well of a 200 nM solution of CDK2/cycline E in kinase buffer containing 1 mM of dithiothreitol (or 10 μL of kinase buffer containing 1 mM of dithiothreitol for the reaction blanks).
After addition of each of the reagents, the final volume of each well is 100 μL, the final concentration of substrate is 10 μM, the final inhibitor concentrations are 10 μM, 3.33 μM, 1.11 μM, 0.37 μM, 0.123 μM, 0.041 μM and 0.014 μM (according to the concentration of the intermediate dilution), the final ATP concentration is 1 μM, the final amount of ^33P is 1 μCi/well, and the final concentration of CDK2/cycline E complex is 20 nM.
After addition of all of the reagents, the test plate is incubated at 30° C. with orbital shaking at 650 rpm.
When the incubation is complete, the plate is washed three times with 300 μL per well of PBS (phosphate-buffered saline, pH=7.4, without calcium or magnesium, reference 10010-015, Gibco BRL). The incorporation of ^33P to the peptide is quantified by scintillation counting with a Packard Topcount.NXT machine.

Tie2 = molecular target: T4, Tie2 (Homo sapiens, UniProt Q02763); assay: Tie2 kinase test, phosphorylation of PLC with GST-Tie2; conditions: GST-Tie2 intracellular domain 776-1124
T4 construct: amino acids of the intracellular domain 776-1124; made in house; host or cells: baculovirus expression (pFastBacGT vector)
T4 sequence (Q02763 776-1124): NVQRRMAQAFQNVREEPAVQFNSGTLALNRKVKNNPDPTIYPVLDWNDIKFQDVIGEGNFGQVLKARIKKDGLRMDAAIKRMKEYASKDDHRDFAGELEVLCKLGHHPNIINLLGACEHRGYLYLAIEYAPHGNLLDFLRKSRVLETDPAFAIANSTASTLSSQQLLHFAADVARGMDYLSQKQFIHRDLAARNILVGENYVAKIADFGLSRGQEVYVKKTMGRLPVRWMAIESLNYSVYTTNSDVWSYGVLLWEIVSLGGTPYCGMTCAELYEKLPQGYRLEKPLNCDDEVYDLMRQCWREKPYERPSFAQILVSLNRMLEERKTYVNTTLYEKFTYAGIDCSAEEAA
Experimental: The coding sequence of human Tie2 corresponding to the amino acids of the intracellular domain 776-1124 was generated by PCR using the cDNA isolated from a human placenta as a model. This sequence was introduced into a pFastBacGT baculovirus expression vector in the form of a GST fusion protein.
The inhibitory effect of the molecules is determined in a test of phosphorylation of PLC with Tie2 in the presence of GST-Tie2 purified to about 80% homogeneity. The substrate is composed of the SH2-SH3 fragments of PLC expressed in the form of a GST fusion protein.
The kinase activity of Tie2 is measured in a MOPS 20 mM pH 7.2 buffer, containing 10 mM MgCl2, 10 mM MnCl2, 1 mM DTT, 10 mM of glycerophosphate. In a 96-well FlashPlate plate maintained on ice, a reaction mixture is deposited, composed of 70 μL of kinase buffer containing 100 ng of enzyme GST-Tie2 per well. Next, 10 μL of the test molecule diluted in DMSO to a maximum concentration of 10% are added. For a given concentration, each measurement is performed four times. The reaction is initiated by adding 20 μL of solution containing 2 μg of GST-PLC, 2 μm of cold ATP and 1 μCi of ^33P[ATP]. After incubation for one hour at 37° C., the reaction is stopped by adding 1 volume (100 μl) of 200 mM EDTA. After removal of the incubation buffer, the wells are washed three times with 300 μL of PBS. The radioactivity is measured on a MicroBeta1450 Wallac.
The inhibition of the Tie2 activity is calculated and expressed as a percentage of inhibition relative to the control activity determined in the absence of compound.

T1 sequence (Q96GD4 whole entry, species assumed): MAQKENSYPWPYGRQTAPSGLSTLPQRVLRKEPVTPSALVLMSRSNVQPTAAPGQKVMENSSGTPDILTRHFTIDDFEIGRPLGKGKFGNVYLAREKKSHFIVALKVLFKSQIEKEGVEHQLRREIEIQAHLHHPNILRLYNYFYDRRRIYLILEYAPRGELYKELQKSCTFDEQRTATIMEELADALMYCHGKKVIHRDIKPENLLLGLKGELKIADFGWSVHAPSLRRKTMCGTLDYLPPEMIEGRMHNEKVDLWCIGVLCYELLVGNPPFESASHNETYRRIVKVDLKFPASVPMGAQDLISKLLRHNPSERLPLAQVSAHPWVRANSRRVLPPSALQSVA
T1 sequence (Q9NQS7 835-903 partner limits assumed, species assumed): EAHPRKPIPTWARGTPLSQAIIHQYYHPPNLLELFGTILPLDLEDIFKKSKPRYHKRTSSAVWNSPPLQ

IC50 (Aurora1) [nM]	IC50 (Aurora2) [nM]	IC50 (CDK2/cycline E) [nM]	IC50 (Tie2) [nM]	Compound
11	17	105	25	CCN(NC(=O)c1cc2c(NC(=O)c3ccc(N4CCN(C)CC4)cc3)n[nH]c2s1)c1cccc(C)c1 [Example 40, N-[5-(N′-ethyl-N′-m-tolylhydrazinocarbonyl)-1H-thieno[2,3-c]pyrazol-3-yl]-4-(4-methylpiperazin-1-yl)benzamide]
13	5	1580	38	CN1CCN(c2ccc(C(=O)Nc3n[nH]c4sc(C(=O)NN(Cc5ccccc5)c5ccccc5)cc34)cc2)CC1 [Example 34, N-[5-(N′-benzyl-N′-phenylhydrazinocarbonyl)-1H-thieno[2,3-c]pyrazol-3-yl]-4-(4-methylpiperazin-1-yl)benzamide]
96	26	275	3060	CN1CCN(c2ccc(C(=O)Nc3n[nH]c4sc(C(=O)NN5CCCCC5)cc34)cc2)CC1 [Example 31, N-(piperidin-1-yl)-3-[4-(4-methylpiperazin-1-yl)benzoylamino]-1H-thieno[2,3-c]pyrazole-5-carboxamide]
151	68	40	218	CN1CCCN(Cc2ccc(C(=O)Nc3n[nH]c4sc(C(=O)NN(C)c5ccc(Cl)cc5)cc34)cc2)CC1 [Example 12b, 4-(4-methylperhydro-1,4-diazepin-1-ylmethyl)-N-[5-(N′-(4-chlorophenyl)-N′-methylhydrazinocarbonyl)-1H-thieno[2,3-c]pyrazol-3-yl]benzamide]
21	4	214	58	COCCN(NC(=O)c1cc2c(NC(=O)c3ccc(N4CCN(C)CC4)cc3)n[nH]c2s1)c1ccc(F)cc1 [Example 38, N-{5-[N′-(4-fluorophenyl)-N′-(2-methoxyethyl)-hydrazinocarbonyl]-1H-thieno[2,3-c]pyrazol-3-yl}-4-(4-methylpiperazin-1-yl)-benzamide]
16	17	428	186	COc1ccc(C(=O)Nc2n[nH]c3sc(C(=O)NNc4ccccc4C)cc23)cc1 [Example 7, 4-methoxy-N-[5-(N′-o-tolylhydrazinocarbonyl)-1H-thieno[2,3-c]pyrazol-3-yl]benzamide]
9	5	1920	6	CN1CCN(c2ccc(C(=O)Nc3n[nH]c4sc(C(=O)NN(CC5CCC5)c5ccc(Cl)cc5)cc34)cc2)CC1 [Example 36, N-{5-[N′-(4-chlorophenyl)-N′-cyclobutylmethylhydrazinocarbonyl]-1H-thieno[2,3-c]pyrazol-3-yl}-4-(4-methylpiperazin-1-yl)-benzamide]
956	762	703	3190	CN(NC(=O)c1cc2c(NC(=O)c3cccc(CN4CCOCC4)c3)n[nH]c2s1)c1ccc(Cl)cc1 [Example 22b, N-{5-[N′-(4-chlorophenyl)-N′-methylhydrazinocarbonyl]-1H-thieno[2,3-c]pyrazol-3-yl}-3-morpholin-4-ylmethylbenzamide]
992	301	942	3210	CN1CCN(Cc2cccc(C(=O)Nc3n[nH]c4sc(C(=O)NN(C)c5ccccc5)cc34)c2)CC1 [Example 16a, N-[5-(N′-methyl-N′-phenylhydrazinocarbonyl)-1H-thieno[2,3-c]pyrazol-3-yl]-3-(4-methylpiperazin-1-ylmethyl)-benzamide]
147	81	717	2210	CN(NC(=O)c1cc2c(NC(=O)c3cccc(CN4CCOCC4)c3)n[nH]c2s1)c1ccccc1 [Example 22a, N-[5-(N′-methyl-N′-phenylhydrazinocarbonyl)-1H-thieno[2,3-c]pyrazol-3-yl]-3-morpholin-4-ylmethylbenzamide]
24	6	1120	61	CC(C)CN(NC(=O)c1cc2c(NC(=O)c3ccc(N4CCN(C)CC4)cc3)n[nH]c2s1)c1ccc(F)cc1 [Example 42, N-{5-[N′-(4-fluorophenyl)-N′-isobutylhydrazinocarbonyl]-1H-thieno[2,3-c]pyrazol-3-yl}-4-(4-methylpiperazin-1-yl)benzamide]
